Columns and labels:
[1] = tested on: transplanted tumor of human colon cancer HT-29 cells; test: Human colon cancer in nude mice model; conditions: HT-29 nude mice; 30 mg/kg i.g. 30 d
Procedure: Then cell concentration was adjusted to 1×10^7/ml with matrigel, then each nude mouse was inoculated subcutaneously with 0.2 ml of cells at its right armpit and recorded as the first day of inoculation. […] Each group was continuously administered intragastrically for 30 days with a dose of 20 ml/kg. The mice were sacrificed the next day after drug withdrawal and the indicators were tested. The long diameter and short diameter of the tumor, and the body weight of each mouse were recorded every 3 days from drug administration to nude mouse sacrifice.
(§1) The body weight of the nude mice and the long diameter (a) and short diameter (b) of the transplanted tumor were measured every 3 days, and the tumor volume (v), relative tumor volume (RTV) and relative tumor proliferation rate (T/C) are calculated respectively according to the following formulas, wherein V=a×b^2/2; RTV=V/V0 (V0 is the tumor volume before administration, V is the tumor volume before sacrifice), and T/C (%)=treatment group RTV/model control group RTV×100%.
(§2) Each mouse was weighed and sacrificed. After the tumor was completely stripped off from the body of the mouse, the non-tumor tissues such as blood stains and fat were removed to weigh the tumor and calculate the tumor growth inhibition rate. The average tumor weight of each group of mice is used as an indicator of efficacy. Tumor growth inhibition rate (%)=(1−the average tumor weight of the treatment group/the average tumor weight of the model group)×100%.

[2] = tested on: transplanted tumor of human breast cancer MDA-MB-231 cells; test: Human breast cancer (MDA-MB-231) in nude mice model; conditions: MDA-MB-231 nude mice; 30 mg/kg i.g. 30 d
Procedure: (§3) Then cell concentration was adjusted to 1×10^7/ml with matrigel, and then each nude mouse was inoculated subcutaneously with 0.2 ml of cells at its right armpit and recorded as the first day of inoculation. […] Each group was continuously administered intragastrically for 30 days with a dose of 20 ml/kg. The mice were sacrificed the next day after drug withdrawal and the indicators were tested. The long diameter and short diameter of the tumor, and the body weight of each mouse were recorded every 3 days from drug administration to nude mouse sacrifice.
as §1, §2

[3] = tested on: transplanted tumor of human gastric adenocarcinoma SGC7901 cells; test: Human gastric adenocarcinoma in nude mice model; conditions: 30 mg/kg
Procedure: as §3, §1, §2

[4] = tested on: transplanted tumor of mouse H22 liver cancer; test: Inhibition of transplanted tumor of mouse H22 liver cancer
Procedure: The H22 cell strains cryopreserved in liquid nitrogen were resuscitated in Kunming mice. After 3 generations, the ascites of Kunming mice were taken and placed in a 50 ml centrifuge tube in which 10 ml of 0.9% normal saline was added, and then centrifuging was performed at 1000 rpm for 5 min at room temperature, and the obtained supernatant was removed. Then 10 ml of 0.9% normal saline was added to the tube to blow and mix well, and then the mixture was diluted to 5×10^6 live cells/ml with normal saline after counting. The tube was stored in ice water, and 75% ethanol was used to disinfect the skin under the right armpits of the mice. Each Kunming mouse was soon inoculated subcutaneously with 0.2 ml of the cells at the armpit of the right forelimb.
In the H22 liver cancer model, the mice inoculated with the tumor were randomly divided into groups with 10 mice in each group on the next day of inoculation. […] Each group was continuously administered intragastrically for 7 days with a dose of 20 ml/kg.
The tumor-bearing mice were weighed and sacrificed the next day after the last administration. The subcutaneous tumors were dissected and weighed. The average tumor weight of each group is calculated, and the tumor inhibition rate is calculated. Tumor inhibition rate=(1−T/C)×100%
T: average tumor weight of the drug-administered group; C: average tumor weight of the blank control group.

[5] = tested on: thymus and spleen of Lewis lung cancer tumor-bearing mice; test: Thymus index and spleen index of Lewis lung cancer tumor-bearing mice; type: in vivo, C57BL/6 mouse
Procedure: After the tumor-bearing mice are sacrificed, the spleen and thymus are weighed, and the spleen index and thymus index are calculated.

[6] = tested on: mouse bone marrow polychromatic erythrocytes; conditions: NIH mice, cyclophosphamide 60 mg/kg positive control
Procedure: It is the object to test the mutagenic potential of drugs on mammalian somatic cells, and provide a basis for clinical drug use.
An appropriate amount of 0.5% sodium carboxymethyl cellulose solution was added to prepare a suspension, and the suspension was stored in a refrigerator at 4° C. The negative control was an equal amount of 0.5% sodium carboxymethylcellulose solution. The positive control was prepared as follows: an appropriate amount of cyclophosphamide used for injection was weighed, and was dissolved in normal saline at the time of use to prepare 60 mg/kg of solution.
6 mice per group. The doses, number of administrations, and bone marrow sampling time are selected in the pre-test.
The dose is reduced by ½ LD50 as the standard, and the number of administrations is one time. According to the pre-test results, the bone marrow sampling time is to sample 24 hours after administration.
At least three dose groups, respectively: 2,000 mg/kg, 1,000 mg/kg, 500 mg/kg
The number of administrations: one-time oral administration.
Oral (Intragastric) administration.
2.4.3 Bone marrow sampling time: 24 hours after administration.
The mice were sacrificed by cervical dislocation. Then the sternums were taken to remove the muscles thereon and the attachments were wiped with a gauze. Direct smear of bone marrow was used: the sternums were cut to expose the medullary cavity, and bone marrow was extruded and mixed well with a drop of calf serum on a slide beforehand as a push piece. After being dried, the slide was fixed in methanol for 10 minutes, and then after it was dried, it was then subjected to Giemsa staining. Each mouse was microscopically examined for about 1,000 polychromatic erythrocytes with intact contours of erythrocytes, and the frequency of occurrence of micronuclei and the ratio of polychromatic erythrocytes to erythrocytes were counted.

[7] = 26 mg/kg, positive drug group, n = 6

## O=P1(N(CCCl)CCCl)NCCCO1 (centres unmarked) [Cyclophosphamide]
[1]
  Body Weight (g)(d1): 23.76 ± 01.11 g
  Body Weight (g)(d30): 21.52 ± 01.32 g
  Inhibition Rate (%): 67.38%
  Relative Tumor Proliferation Rate(T/C): 25.71%
  Relative Tumor Volume (RTV): 5.21 ± 0.70
  Tumor Volume (mm3) (d1): 156.61 ± 5.92 mm3
  Tumor Volume (mm3) (d30): 816.17 ± 21.03 mm3
  Tumor Weight: 0.40 ± 0.03 g
[2]
  Body Weight (g)(d1): 21.28 ± 0.95 g
  Body Weight (g)(d30): 19.79 ± 1.03 g
  Inhibition Rate (%): 79.75%
  Relative Tumor Proliferation Rate(T/C): 28.59%
  Relative Tumor Volume (RTV): 3.46 ± 0.70
  Tumor Volume (mm3) (d1): 169.73 ± 11.79 mm3
  Tumor Volume (mm3) (d30): 587.27 ± 30.47 mm3
  Tumor Weight: 0.27 ± 0.11 g
[3]
  Relative Tumor Proliferation Rate(T/C): 48.83%
  Relative Tumor Volume (RTV): 7.86 ± 3.23
  Tumor Weight: 0.71 ± 0.08 g
[3]; by tumor weight
  Inhibition Rate (%): 70.97%
[3]; d1
  Body Weight (g)(d1): 21.80 ± 1.96 g
  Tumor Volume (mm3) (d1): 102.45 ± 9.52 mm3
[3]; d30
  Body Weight (g)(d30): 20.25 ± 1.57 g
  Tumor Volume (mm3) (d30): 799.74 ± 82.25 mm3
[4]; 26 mg/kg, positive drug group
  tumour: 0.53 ± 0.24 g
[4]; 26 mg/kg, positive drug group, by tumor weight
  Inhibition Rate (%): 47.25%
[4]; 26 mg/kg, positive drug group, d1
  Body Weight (g)(d1): 23.50 ± 1.90 g
[4]; 26 mg/kg, positive drug group, d7
  Body Weight (g) (d7): 25.13 ± 2.69 g
[4]; H22 liver cancer mice, cyclophosphamide 26 mg/kg
  weight compared with the normal control group: slight decrease in weight
[4]; Kunming mouse H22 liver cancer, cyclophosphamide 26 mg/kg i.g. 7 days
  tumor inhibition rate: 47.25%
[5]; [7]
  Spleen Index (%): 0.41 ± 0.12 %
  Thymus Index (%): 0.12 ± 0.09%
[5]; Lewis lung cancer tumor-bearing mice, cyclophosphamide, P<0.01
  spleen index compared with the control group: significantly lower
[6]
  micronucleus rate relative to the negative control group: 16.85 times
[6]; P<0.01
  micronuclei of polychromatic erythrocytes compared with the negative control group: very significant increase

Reference: patent US11077126B2 (priority 2017, dated 2021)
